Source: patent US20260013504A1, “HERBICIDAL MIXTURE, HERBICIDAL COMPOSITION, METHOD, USE, AND KITS FOR CONTROLLING UNDESIRABLE VEGETATION” (ADAMA AGAN LTD., priority 2022, published 2026)

Tests used:
Format in all cases: in vivo
Aegilops tauschii = assay: Pot experiment, soil treatment, control of Aegilops tauschii (fresh weight, Colby); conditions: mixtures: both AIs at these rates, after 35 days
From the text: (§1) Referring to an article of Colby, S. R. i.e., Calculation of the synergistic and antagonistic response of herbicide combinations.
E0 is the theoretical fresh weight survival rate for the mixture of pyroxasulfone and the second herbicide selected from the group consisting of fluorochloridone, aclonifen, diflufenican and terbutryn;
X is the measured fresh weight survival rate for pyroxasulfone used alone at the same dosage as that in the mixture;
Y is the measured fresh weight survival rate for the second herbicide selected from the group consisting of fluorochloridone, aclonifen, diflufenican and terbutryn used alone at the same dosage as that in the mixture;
E is the measured fresh weight survival rate for the mixture of pyroxasulfone and the second herbicide selected from the group consisting of fluorochloridone, aclonifen, diflufenican and terbutryn.
(§2) E0-E value is calculated to evaluate the combined effect of pyroxasulfone and the second herbicide selected from the group consisting of fluorochloridone, aclonifen, diflufenican and terbutryn on the selected weeds.
(§3) In this Example, the herbicidal activity of treatments by a mixture of pyroxasulfone and the second herbicide selected from the group consisting of fluorochloridone, aclonifen, diflufenican and terbutryn for controlling Aegilops tauschii was investigated by a pot experiment. This Example was carried out in accordance with “NY/T 1155.4-2006 Guidelines for Indoor Bioassay Tests of Pesticides, Herbicides Part 4: Activity Determination Tests, Stem and Leaf Spray Method”. • Source of the agrochemicals tested were: • Pyroxasulfone: pyroxasulfone (850g/Kg, WG) from Adama Agan LTD. • Fluorochloridone: fluorochloridone (250 g/L, EC) from Adama Agan LTD. • Aclonifen: aclonifen (600 g/L, SC) from Adama Agan LTD. • Diflufenican: diflufenican (50g/Kg, WP) from Bayer. • Terbutryn: terbutryn (50g/Kg, SC) from Zhejiang Zhongshan Chemical Industry Group Co., Ltd. • Cultivation of test materials: The test soil was formed by mixing the 20 cm layer loam on the ground surface and the culture medium in a ratio of 3:1 as cultivation soil. Weeds were cultivated in an artificial climate chamber. The daytime and nighttime temperatures were set at 22° C. and 19° C., respectively, and the illumination was set at daytime: dark time 12h: 12h.
(§4) A certain amount of Aegilops tauschii seeds were sown in a plastic pot with a diameter of 9 cm, covering with 1-2 mm soil, and putting them in an enamel dish filled with water. The bottom infiltration method was used to water them, the agrochemicals tested in this Example were applied on the second day after sowing Aegilops tauschii seeds.
(§5) Spraying treatment: ASS-4 automatic control spraying system with a fan-shaped nozzle was used indoors to spray the agrochemicals, the running speed was adjusted based on nozzle pressure, flow rate, etc. to spray 50 mL of liquid of agrochemicals on the actual spray area of 1.1 m2 (equivalent to 30 liters per mu), arranging the plastic pots to be processed on the spraying table evenly, and spraying evenly. The spraying pressure was 0.35 MPa, and the flow rate of the fan-shaped nozzle was 800 mL/min, spraying in order from low dosage to high dosage. Each treatment was repeated 3 times. After spraying, the plastic pots were dried for one day, placed in an artificial climate chamber, and watered regularly to keep moist.
(§6) Weed investigation method and time: after applying the agrochemicals, the symptoms of weed damage (such as growth inhibition, chlorosis, deformity, etc.) were recorded in detail. After 35 days, the fresh weight of aerial part of the weeds in each treatment was weighed, and the measured fresh weight inhibition rate and the measured fresh weight survival rate for each treatment were calculated according to the following equations: […]

Lolium multiflorum Lamk = assay: Pot experiment, soil treatment, control of Lolium multiflorum Lamk (fresh weight, Colby); conditions: mixtures: both AIs at these rates, after 35 days
Experimental: as §1, §2, §3, §4, §5, §6
Example 2 was conducted in substantially the same way as Example 1, except that Lolium multiflorum Lamk was used instead of Aegilops tauschii.

Bromus japonicus = assay: Pot experiment, soil treatment, control of Bromus japonicus (fresh weight, Colby); conditions: mixtures: both AIs at these rates, after 35 days
Experimental: as §1, §2, §3, §4, §5, §6
Example 3 was conducted in substantially the same way as Example 1, except that Bromus japonicus was used instead of Aegilops tauschii.

Galium aparine = assay: Pot experiment, soil treatment, control of Galium aparine (fresh weight, Colby)
Experimental: as §1, §2, §3, §4, §5, §6
Example 4 was conducted substantially the same way as Example 1, except that Galium aparine was used instead of Aegilops tauschii.

Lithospermum arvense = assay: Pot experiment, soil treatment, control of Lithospermum arvense (fresh weight, Colby)
Experimental: as §1, §2, §3, §4, §5, §6
Example 5 was conducted substantially the same way as Example 1, except that Lithospermum arvense was used instead of Aegilops tauschii.

Solanum nigrum = assay: Pot experiment (glass greenhouse), soil treatment, control of Solanum nigrum (fresh weight, Colby)
Experimental: as §1, §2, §3, §4, §5, §6
Example 6 was substantially conducted in the same as Example 1, except that (1) Solanum nigrum was used instead of Aegilops tauschii, (2) in “Cultivation of test materials” part, Solanum nigrum was cultivated in a glass greenhouse instead of an artificial climate chamber at a temperature of 25 to 33° C. with a natural illumination, and (3) in “Spraying treatment” part, after spraying and drying, the plastic pots were placed in a glass greenhouse instead of an artificial climate chamber.

[1] = g ai/ha: pyroxasulfone 11.25, fluorochloridone 31.25, aclonifen 150, diflufenican 14.0625, terbutryn 140.625
[2] = g ai/ha: pyroxasulfone 22.5, fluorochloridone 62.5, aclonifen 300, diflufenican 28.125, terbutryn 281.25
[3] = g ai/ha: pyroxasulfone 45, fluorochloridone 125, aclonifen 600, diflufenican 56.25, terbutryn 562.5
[4] = g ai/ha: pyroxasulfone 90, fluorochloridone 250, aclonifen 1200, diflufenican 112.5, terbutryn 1125
[5] = g ai/ha: pyroxasulfone 180, fluorochloridone 500, aclonifen 2400, diflufenican 225, terbutryn 2250
[6] = g ai/ha: pyroxasulfone 360, fluorochloridone 1000, aclonifen 4800, diflufenican 450, terbutryn 4500

For `CCNc1nc(NC(C)(C)C)nc(SC)n1` [terbutryn, N-(1,1-dimethylethyl)-N′-ethyl-6-(methylthio)-1,3,5-triazine-2,4-diamine], the “Measured fresh weight inhibition rate (%)” value (Aegilops tauschii; [1]) was 8.5%, the “Measured fresh weight survival rate (%) - E” value (Aegilops tauschii; [1]) was 91.5% and the “Measured fresh weight inhibition rate (%)” value (Aegilops tauschii; [2]) was 12.8%. The “Measured fresh weight survival rate (%) - E” value (Aegilops tauschii; [2]) was 87.2%, the “Measured fresh weight inhibition rate (%)” value (Aegilops tauschii; [3]) was 46.3% and the “Measured fresh weight survival rate (%) - E” value (Aegilops tauschii; [3]) was 53.7%. For the same compound, the “Measured fresh weight inhibition rate (%)” value (Aegilops tauschii; [4]) was 97.6%, the “Measured fresh weight survival rate (%) - E” value (Aegilops tauschii; [4]) was 2.4% and the “Measured fresh weight inhibition rate (%)” value (Aegilops tauschii; [5]) was 96.3%. The “Measured fresh weight survival rate (%) - E” value (Aegilops tauschii; [5]) was 3.7%, the “Measured fresh weight inhibition rate (%)” value (Aegilops tauschii; [6]) was 100.0% and the “Measured fresh weight survival rate (%) - E” value (Aegilops tauschii; [6]) was 0.0%. The “Measured fresh weight inhibition rate (%)” value (Lolium multiflorum Lamk; [1]) was 94.3%, the “Measured fresh weight survival rate (%) - E” value (Lolium multiflorum Lamk; [1]) was 5.7% and the “Measured fresh weight inhibition rate (%)” value (Lolium multiflorum Lamk; [2]) was 94.8%. The “Measured fresh weight survival rate (%) - E” value (Lolium multiflorum Lamk; [2]) was 5.2%, the “Measured fresh weight inhibition rate (%)” value (Lolium multiflorum Lamk; [3]) was 100.0% and the “Measured fresh weight survival rate (%) - E” value (Lolium multiflorum Lamk; [3]) was 0.0%. The “Measured fresh weight inhibition rate (%)” value (Lolium multiflorum Lamk; [4]) was 100.0%, the “Measured fresh weight survival rate (%) - E” value (Lolium multiflorum Lamk; [4]) was 0.0% and the “Measured fresh weight inhibition rate (%)” value (Lolium multiflorum Lamk; [5]) was 100.0%. For the same compound, the “Measured fresh weight survival rate (%) - E” value (Lolium multiflorum Lamk; [5]) was 0.0%, the “Measured fresh weight inhibition rate (%)” value (Lolium multiflorum Lamk; [6]) was 100.0% and the “Measured fresh weight survival rate (%) - E” value (Lolium multiflorum Lamk; [6]) was 0.0%. The “Measured fresh weight inhibition rate (%)” value (Bromus japonicus; [1]) was 100.0%, the “Measured fresh weight survival rate (%) - E” value (Bromus japonicus; [1]) was 0.0% and the “Measured fresh weight inhibition rate (%)” value (Bromus japonicus; [2]) was 100.0%. For the same compound, the “Measured fresh weight survival rate (%) - E” value (Bromus japonicus; [2]) was 0.0%, the “Measured fresh weight inhibition rate (%)” value (Bromus japonicus; [3]) was 100.0% and the “Measured fresh weight survival rate (%) - E” value (Bromus japonicus; [3]) was 0.0%. For the same compound, the “Measured fresh weight inhibition rate (%)” value (Bromus japonicus; [4]) was 100.0%, the “Measured fresh weight survival rate (%) - E” value (Bromus japonicus; [4]) was 0.0% and the “Measured fresh weight inhibition rate (%)” value (Bromus japonicus; [5]) was 100.0%. For the same compound, the “Measured fresh weight survival rate (%) - E” value (Bromus japonicus; [5]) was 0.0%, the “Measured fresh weight survival rate (%) - E” value (Galium aparine; 140.625 g ai/ha) was 80.8% and the “Measured fresh weight survival rate (%) - E” value (Galium aparine; 281.25 g ai/ha) was 53.4%. For the same compound, the “Measured fresh weight survival rate (%) - E” value (Galium aparine; 562.5 g ai/ha) was 9.6%, the “Measured fresh weight survival rate (%) - E” value (Galium aparine; 1125 g ai/ha) was 8.2% and the “Measured fresh weight survival rate (%) - E” value (Galium aparine; 2250 g ai/ha) was 0.0%. The inhibition at 140.625 g/ha (Galium aparine; Galium aparine, soil, 140.625 g ai/ha, read-out: Measured fresh weight inhibition rate (%)) was 19.2%, the inhibition at 281.25 g/ha (Galium aparine; Galium aparine, soil, 281.25 g ai/ha, read-out: Measured fresh weight inhibition rate (%)) was 46.6% and the inhibition at 562.5 g/ha (Galium aparine; Galium aparine, soil, 562.5 g ai/ha, read-out: Measured fresh weight inhibition rate (%)) was 90.4%. For the same compound, the inhibition at 1125 g/ha (Galium aparine; Galium aparine, soil, 1125 g ai/ha, read-out: Measured fresh weight inhibition rate (%)) was 91.8%, the inhibition at 2250 g/ha (Galium aparine; Galium aparine, soil, 2250 g ai/ha, read-out: Measured fresh weight inhibition rate (%)) was 100% and the “Measured fresh weight survival rate (%) - E” value (Lithospermum arvense; 140.625 g ai/ha) was 1.4%. For the same compound, the “Measured fresh weight survival rate (%) - E” value (Lithospermum arvense; 281.25 g ai/ha) was 1.4%, the “Measured fresh weight survival rate (%) - E” value (Lithospermum arvense; 562.5 g ai/ha) was 0.0% and the “Measured fresh weight survival rate (%) - E” value (Lithospermum arvense; 1125 g ai/ha) was 0.0%. For the same compound, the “Measured fresh weight survival rate (%) - E” value (Lithospermum arvense; 2250 g ai/ha) was 0.0%, the inhibition at 140.625 g/ha (Lithospermum arvense; Buglossoides arvensis, soil, 140.625 g ai/ha, read-out: Measured fresh weight inhibition rate (%)) was 98.6% and the inhibition at 281.25 g/ha (Lithospermum arvense; Buglossoides arvensis, soil, 281.25 g ai/ha, read-out: Measured fresh weight inhibition rate (%)) was 98.6%. It also gave an inhibition at 562.5 g/ha (Lithospermum arvense; Buglossoides arvensis, soil, 562.5 g ai/ha, read-out: Measured fresh weight inhibition rate (%)) of 100%, an inhibition at 1125 g/ha (Lithospermum arvense; Buglossoides arvensis, soil, 1125 g ai/ha, read-out: Measured fresh weight inhibition rate (%)) of 100% and an inhibition at 2250 g/ha (Lithospermum arvense; Buglossoides arvensis, soil, 2250 g ai/ha, read-out: Measured fresh weight inhibition rate (%)) of 100%. The “Measured fresh weight survival rate (%) - E” value (Solanum nigrum; 140.625 g ai/ha) was 57.6%, the “Measured fresh weight survival rate (%) - E” value (Solanum nigrum; 281.25 g ai/ha) was 36.1% and the “Measured fresh weight survival rate (%) - E” value (Solanum nigrum; 562.5 g ai/ha) was 0.4%. The “Measured fresh weight survival rate (%) - E” value (Solanum nigrum; 1125 g ai/ha) was 0.0%, the “Measured fresh weight survival rate (%) - E” value (Solanum nigrum; 2250 g ai/ha) was 0.0% and the inhibition at 140.625 g/ha (Solanum nigrum; Solanum nigrum, soil, 140.625 g ai/ha, read-out: Measured fresh weight inhibition rate (%)) was 42.4%. It also gave an inhibition at 281.25 g/ha (Solanum nigrum; Solanum nigrum, soil, 281.25 g ai/ha, read-out: Measured fresh weight inhibition rate (%)) of 63.9%, an inhibition at 562.5 g/ha (Solanum nigrum; Solanum nigrum, soil, 562.5 g ai/ha, read-out: Measured fresh weight inhibition rate (%)) of 99.6% and an inhibition at 1125 g/ha (Solanum nigrum; Solanum nigrum, soil, 1125 g ai/ha, read-out: Measured fresh weight inhibition rate (%)) of 100%. The inhibition at 2250 g/ha (Solanum nigrum; Solanum nigrum, soil, 2250 g ai/ha, read-out: Measured fresh weight inhibition rate (%)) was 100%.
